Blank lines part the entries; values can stand above or below the molecule they belong to.
Tests used:
SH-N and SH-F cells = assay: Cell-cycle exit of neuroblastoma cells treated with RA; assay type: cell-based, human; settings: RA 0.1 μM
Excerpt: Human neuroblastoma cells are frequently used as in vitro models to recapitulate differentiation of the nervous system. To ask whether ENH expression is regulated during differentiation of the nervous system, clonal derivatives of the human neuroblastoma cell line SK-N-SH, the SK-N-SH-N (SH-N) and SK-N-SH-F (SH-F) cells were used. These cells, which lack N-myc gene amplification, have been used to characterize the cell-cycle exit associated with differentiation of neural cells. When treated with a low concentration of RA (0.1 μM) SH-N cells undergo differentiation along the neuronal lineage, whereas SH-F cells acquire an epithelioid morphology and rapidly enter into a senescent-like state. Both cell types arrest in the G1 phase of the cell cycle within 48 h of treatment with RA. […] Although higher concentrations of RA led to marked inhibition of N-myc and Id2 gene expression in N-myc-amplified neuroblastoma cells, it was noted that RA at the concentration of 0.1 μM caused little change of Id2 expression in the SK-N-SH derivatives. However, a late decrease of Id2 protein was evident in RA-treated SH-N cells (FIG. 3D).

[1] = test system: Flag-Id2 in SK-N-SH cells; assay: Quantitative analysis of subcellular localization of Flag-Id2 after RA (double immunofluorescence); assay type: cell-based, human; settings: 48 h, SK-N-SH expressing Flag-Id2, three independent experiments
Method: Quantitative Analysis of Subcellular Localization of Id2 and siRNA Experiments: SK-N-SH-Flag-Id2 cells untreated or treated with RA for 48 h were fixed in 4% paraformaldehyde. Flag-Id2 and endogenous ENH were immunostained by using Flag-M2 (Sigma) and ENH antibodies, respectively. SK-N-SH cells were transfected with vector or p3XFlag-ENH and immunostained by using Flag-M2 and Id2 (Zymed) antibodies. For silencing of ENH, ENH siRNA (siGenome Smartpool reagent M-006930-00) and control, nontargeting (siGenome Smartpool reagent D-001206-13) siRNA mixtures were purchased from Dharmacon. SK-N-SH cells stably expressing Flag-Id2 were treated with vehicle control or RA for 48 h and transfected with 60 nM siRNAs by using Lipofectamine 2000 (Invitrogen). Thirty-six hours after transfection cells were fixed in 4% paraformaldehyde and immunostained by using Flag-M2 antibodies. Parallel cultures were analyzed by Western blot. Secondary antibodies were FITC- or Cy3-conjugated anti-rabbit and Cy3-conjugated anti-mouse (Jackson ImmunoResearch). Nuclei were counterstained with DAPI. Slides were mounted in 90% glycerol in PBS and analyzed on an Olympus epifluorescence microscope. The percentage of cells displaying Id2 staining in the nucleus was scored by counting at least 500 cells from triplicate samples. […]

Flag-Id2 = assay: cell-based or functional assay
[2] = biological target: T1, full length Id2 as bait (entire coding sequence of human Id2 in bait plasmid pDBLeu) (human, UniProt Q02363 1-134); assay: yeast two-hybrid screen of a human fetal brain cDNA library
T1 construct: Yeast two-hybrid bait (Proquest system, pDBLeu); also called Id2 bait
T1 sequence (looked up): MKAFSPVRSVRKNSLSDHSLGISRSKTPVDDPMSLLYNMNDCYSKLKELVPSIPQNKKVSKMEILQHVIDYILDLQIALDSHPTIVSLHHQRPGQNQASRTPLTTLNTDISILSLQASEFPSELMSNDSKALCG
Method: Yeast Two-Hybrid Screening: The Proquest system (Invitrogen Life Technologies, Carlsbad, Calif.) was used for yeast two-hybrid screening. The entire coding sequence of human Id2 was subcloned into the bait plasmid pDBLeu. A human fetal brain cDNA library in pPC86 was transformed into MaV203 yeast cells and screened for interactors with the bait plasmid according to the manufacturer's protocol.
To identify new interactors of Id2 from the nervous system, a yeast two-hybrid screen was conducted with a human fetal brain cDNA library using full length Id2 as bait. This screen yielded 47 validated cDNA clones corresponding to four different Id2-associated proteins. Among them, 24 clones code for Id2, 13 clones code for the bHLH transcription factor E2-2, eight clones code for the bHLH transcription factor HEB, and two clones code for the PDZ-LIM protein ENH. All Id2 and bHLH clones retain an intact HLH domain. This finding is consistent with the essential role of the HLH domain for heterodimerization. The presence of endogenous Id2 is explained by the strong homodimerization ability of Id2 and its abundant expression in the fetal brain.

Molecule: CC1=C(/C=C/C(C)=C/C=C/C(C)=C/C(=O)O)C(C)(C)CCC1 [RA, retinoic acid]
time to arrest in the G1 phase of the cell cycle (SH-N and SH-F cells): ≤ 48 h
cells with Flag-Id2 relocated to the cytoplasm ([1]; ENH positive cells after RA): ~60%
cells with Flag-Id2 relocated to the cytoplasm ([1]; ENH-negative cells after RA): 10%

percentage of cells with cytoplasmic Flag-Id2 after RA treatment (double immunofluorescence) (Flag-Id2): 60%
Molecule: endogenous ENH from RA-treated SK-N-SH neuroblastoma cells (from UniProt Q96HC4 2-596)

binding result [2]: binds
B1: C-terminal fragment of ENH (amino acids 461-596) of the two two-hybrid clones (other)
chain: EKGALYCELCYEKFFAPECGRCQRKILGEVINALKQTWHVSCFVCVACGKPIRNNVFHLEDGEPYCETDYYALFGTICHGCEFPIEAGDMFLEALGYTWHDTCFVCSVCCESLEGQTFFSKKDKPLCKKHAHSVNF
notes: Prey clones from a human fetal brain cDNA library in pPC86; also called ENH clones
